From patent US20130203830A1, “Compounds for Prevention of Cell Injury” (SULFATEQ B.V., priority 2010, published 2013)
“Also recorded” adds a separate entry of the source.

What was measured:
[1] = tested on: CBS enzyme isolated from DDT-1 cells; assay: Activity of isolated CBS enzyme (H2S production); type: biochemical, hamster; details: both at 37° C. and 3° C.
Method: To examine the potential of serotonin to act as a cofactor or allosteric activator of CBS, the enzyme was isolated from DDT-1 cells. In brief, DDT-1 cells were lyzed by a non-denaturing buffer. CBS antibody (1 μg/ml) was diluted in coating solution and 100 μl of it was added to each well of a microplate. The plates were left at 4° C. over night. The wells were washed with PBS three times for 2 min and 10 μg/ml of the protein was added to each well and the microplate was left at 4° C. for another 24 hr and later washed three times with PBS. The substrates cysteine and homocysteine at the concentration of 10 μmol each were mixed and 100 μl was added to each well in the absence or presence of PLP (pyridoxal-5-phosphate) or serotonin (30 nmol) in PBS.

SMAC cells [2] = assay: Survival of SMAC cells after hypothermia (MTS assay / cell counting); type: cell-based, rat; details: SMAC cells, 24 h at 3° C., substance added 15 min before hypothermia
Method: Cell lines used included NRK (normal rat kidney cells), DDT-1 (hamster ductus deferens muscle cells) and A7R5 (rat vascular smooth muscle cells) cultured in DMEM (Gibco, 41966, UK) and SMAC (rat smooth muscle aortic cells) and THMC (transformed human mesangial cell) cultured in DMEM/F12 (Gibco, E12-719F). All media were supplied with 10% (vol/vol) fetal calf serum and 1% penicillin-streptomycin and cultured at 37° C. in 5% CO2 in 25 cm^2 or 75 cm^2 flasks. For hypothermia experiments, cells were plated in 6 or 96 wells plates and grown to confluence. Thereupon, cells were placed at 3° C. for up to 24 hours. Cell survival was measured by counting of trypan blue stained cells or MTS assay, which measures the number of viable cells. For the latter, 20 μl of MTS solution was added to each well and cells were subsequently placed in the incubator at 37° C. in 5% CO2 for 3 hr before assessing the cell survival by measuring absorption using a microplate reader at 490 nm.
MTS assay was performed to investigate cell survival after blocking serotonin transporter and hypothermic treatment.

SMAC cells [3] = assay: H2S content of SMAC cell homogenates (methylene blue method); type: cell-based, rat; details: hypothermic SMAC cells 24 h, 3° C., pretreatment 15 min, 1.3 μM
Method: Methylene blue method for H2S detection was applied to quantitatively measure the H2S production. Cells were washed with PBS, scraped and centrifuged for 60 sec at 1000 rpm. After removal of the supernatant, zinc acetate 1% in water (200 μl) was added to the cell sediments and the cells were disrupted by small glass beads and vortexed for 20 seconds. Diamine-ferric solution was prepared by mixing 100 μl of a 400 mg N,N-dimethyl-p-phenylenediamine dihydrochloride dissolved in 10 ml 6M HCl and 100 μl of 600 mg ferric chloride in 10 ml 6M HCl. Two hundred μl of this mixture was added to the cell suspension and after an incubation time of 30 min at 37° C. and centrifugation, the amount of methylene blue formed in the supernatant was measured at a wavelength of 670 nm. To measure H2S content of supernatant, the same procedure was repeated for the cell free medium of cells incubated at both 37° C. and 3° C. Blanks were made following the same procedure without cells or using fresh medium. The concentration of H2S was calculated by extrapolation using a standard curve obtained from different concentrations of Methylene blue and spectrophotometric measurement at a wavelength of 670 nm. The amount of H2S present was calculated on the basis that every mole of methylene blue formed in this reaction contains 32 g (1 mole) of captured sulfur.

SMAC cells [4] = assay: Caspase 3/7 assay in hypothermic SMAC cells; type: cell-based, rat; details: serotonin 5 nmol/L
[5] = tested on: Cystathionine-β-synthase (CBS); assay: CBS expression in SMAC cells (western blot); type: cell-based, rat; details: serotonin 1.3 μM
Method: To investigate the potential of serotonin in upregulating CBS expression in cells, SMAC cells were cultured in a 6 well plate one day before serotonin treatment. After reaching confluence, cells were incubated with 1.3 μM serotonin in SMAC cell complete medium. Control wells only contained the medium. At every time point (5, 10, min), cells were washed with PBS, lysed using RIPA buffer and western blotted to study the change in CBS expression level.
To investigate the role of Cystathione beta-synthase activity in the protective effect of serotonin the expression of CBS was reduced by applying a predesigned siRNA (sc-60336, Santa Cruz, USA) and compared to a silencer negative control (Ambion, AM4644, Huntingdon, UK). DDT-1 and SMAC cells at 60-80% confluence were seeded in 96 or 6 well plates in antibiotic-free normal growth medium supplemented with FCS. […] The protein concentration was measured by Bradford assay in all the samples. […] Proteins were transferred to a nitrocellulose membrane and detected by West Pico Chemiluminescent Substrate (supersignal), photographed and analyzed with genetool software (version 3.08, SynGene, England). […]

## NCCc1c[nH]c2ccc(O)cc12 [serotonin, Serotonin]
[1]
  activity of isolated CBS: increase the activity
SMAC cells [2]
  protection against hypothermic cell death / reduction in number of cells: concentration-dependently prevented; also recorded: Protection of hypothermic cell death
SMAC cells [3]
  H2S content: 1.4±0.2 μmoles per 10̂6 cells
SMAC cells [3]; vs untreated
  increase of H2S content: 8 fold
SMAC cells [4]
  apoptosis (caspase 3/7) in hypothermic SMAC cells: completely and dose dependently attenuated
[5]; SMAC cells, 37° C., 15 min
  induction of CBS expression: 4 fold
[5]
  CBS expression in 37° C. SMAC cells: upregulates CBS expression
